# Reference: ChEMBL document CHEMBL3525960, “Role of catechol-O-methyltransferase in the disposition of luteolin in rats” (Drug Metab Dispos, 2011)
# Experiments:
# Rattus norvegicus = assay: Clearance in Sprague-Dawley rat treated with luteolin at 6.5 mg/kg, iv; assay type: ADME, organism-based; parameters: dose 6.5 mg/kg, route intravenous; conditions: in vivo
# [1] = Half life in Sprague-Dawley rat treated with luteolin at 6.5 mg/kg, iv; assay type: ADME, organism-based; parameters: dose 6.5 mg/kg, route intravenous; conditions: in vivo
# Liver microsome = assay: Stability in Sprague-Dawley rat liver microsomes at 10 uM after 10 to 30 mins by HPLC analysis; assay type: ADME
# [2] = Cmax in Sprague-Dawley rat treated with luteolin at 6.5 mg/kg, iv; assay type: ADME, organism-based; parameters: dose 6.5 mg/kg, route intravenous; conditions: in vivo
# Liver [3] = assay: Drug metabolism in Sprague-Dawley rat liver homogenate treated with luteolin at 20 uM after 20 to 60 mins in presence of COMT inhibitor entacapone; assay type: ADME, tissue-based; conditions: tissue homogenate
# [4] = Drug metabolism in Sprague-Dawley rat erythrocytes homogenate treated with luteolin at 20 uM after 20 to 60 mins in presence of COMT inhibitor entacapone; assay type: ADME, cell-based; conditions: erythrocyte
# [5] = Mean residence time (0 to infinity) in Sprague-Dawley rat treated with luteolin at 6.5 mg/kg, iv; assay type: ADME, organism-based; parameters: dose 6.5 mg/kg, route intravenous; conditions: in vivo
# [6] = Volume of distribution in Sprague-Dawley rat treated with luteolin at 6.5 mg/kg, iv; assay type: ADME, organism-based; parameters: dose 6.5 mg/kg, route intravenous; conditions: in vivo
# Small intestine [7] = assay: Drug metabolism in Sprague-Dawley rat small intestine homogenate treated with luteolin at 20 uM after 20 to 60 mins in presence of COMT inhibitor entacapone; assay type: ADME, tissue-based; conditions: tissue homogenate
# Kidney [8] = assay: Drug metabolism in Sprague-Dawley rat kidney homogenate treated with luteolin at 20 uM after 20 to 60 mins; assay type: ADME, tissue-based; conditions: tissue homogenate
# [9] = AUC (0 to t) in Sprague-Dawley rat treated with luteolin at 6.5 mg/kg, iv; assay type: ADME, organism-based; parameters: dose 6.5 mg/kg, route intravenous; conditions: plasma
# Kidney [10] = assay: Drug metabolism in Sprague-Dawley rat kidney homogenate treated with luteolin at 20 uM after 20 to 60 mins in presence of COMT inhibitor entacapone; assay type: ADME, tissue-based; conditions: tissue homogenate
# [11] = Drug excretion in Sprague-Dawley rat urine treated with luteolin at 6.5 mg/kg, iv after 24 hrs; assay type: ADME, organism-based; parameters: dose 6.5 mg/kg, route intravenous; conditions: read-out: Drug excretion
# [12] = AUC (0 to infinity) in Sprague-Dawley rat treated with luteolin at 6.5 mg/kg, iv; assay type: ADME, organism-based; parameters: time infinity, dose 6.5 mg/kg, route intravenous; conditions: plasma
# Lung [13] = assay: Drug metabolism in Sprague-Dawley rat lung homogenate treated with luteolin at 20 uM after 20 to 60 mins in presence of COMT inhibitor entacapone; assay type: ADME, tissue-based; conditions: tissue homogenate
# Liver [14] = assay: Drug metabolism in Sprague-Dawley rat liver homogenate treated with luteolin at 20 uM after 20 to 60 mins; assay type: ADME, tissue-based; conditions: tissue homogenate
# Lung [15] = assay: Drug metabolism in Sprague-Dawley rat lung homogenate treated with luteolin at 20 uM after 20 to 60 mins; assay type: ADME, tissue-based; conditions: tissue homogenate
# Small intestine [16] = assay: Drug metabolism in Sprague-Dawley rat small intestine homogenate treated with luteolin at 20 uM after 20 to 60 mins; assay type: ADME, tissue-based; conditions: tissue homogenate
# [17] = Drug recovery in Sprague-Dawley rat urine assessed as retention time treated with luteolin at 6.5 mg/kg, iv by reverse-phase HPLC method; assay type: ADME, organism-based; parameters: dose 6.5 mg/kg, route intravenous; conditions: in vivo
# [18] = Drug excretion in Sprague-Dawley rat urine treated with luteolin at 6.5 mg/kg, iv after 24 hrs co-treated with COMT inhibitor entacapone; assay type: ADME, organism-based; parameters: dose 6.5 mg/kg, route intravenous; conditions: read-out: Drug excretion
# [19] = Mean residence time (0 to t) in Sprague-Dawley rat treated with luteolin at 6.5 mg/kg, iv; assay type: ADME, organism-based; parameters: dose 6.5 mg/kg, route intravenous; conditions: in vivo
# [20] = Drug metabolism in Sprague-Dawley rat erythrocytes homogenate treated with luteolin at 20 uM after 20 to 60 mins; assay type: ADME, cell-based; conditions: erythrocyte
smiles,measurement,setting,value
COc1ccc(-c2cc(=O)c3c(O)cc(O)cc3o2)cc1O [DIOSMETIN],clearance,Rattus norvegicus,238 mL/min/kg
same,half-life,[1],30.8 min
same,Stability,Liver microsome,Unstable
same,Cmax,[2],560 ng/mL
same,Drug metabolism,Liver [3],metabolite_not_detected
same,Drug metabolism,[4],metabolite_not_detected
same,MRT inf,[5],46 min
same,Vd,[6],10.3 L/kg
same,Drug metabolism,Small intestine [7],metabolite_not_detected
same,Drug metabolism,Kidney [8],metabolite_detected
same,AUC(0-t),[9],427 ng·h/mL
same,Drug metabolism,Kidney [10],metabolite_not_detected
same,dose excreted at 24 h,[11],1.22%
same,AUC(0-inf),[12],466 ng·h/mL
same,Drug metabolism,Lung [13],metabolite_not_detected
same,Drug metabolism,Liver [14],metabolite_detected
same,Drug metabolism,Lung [15],metabolite_detected
same,Drug metabolism,Small intestine [16],metabolite_detected
same,Retention_time,[17],30.85 min
same,dose excreted at 24 h,[18],0.254%
same,MRT last,[19],35.8 min
same,Drug metabolism,[20],metabolite_detected
